Source: patent US20230310428A1, “EGFR INHIBITOR AND PREPARATION METHOD AND USE THEREOF” (HONGYUN BIOTECH CO., LTD., priority 2020, published 2023)

Assays:
Experiment in all cases: Growth inhibitory activity of compounds on BaF3 cell lines stably transfected with kinase (MTS, 48 h)
Assay type in all cases: cell-based
[1] = molecular target: T1, various mutants of kinase EGFR (BaF3 cell lines stably transfected with kinase) (Homo sapiens, UniProt P00533); settings: BaF3 cell line stably transfected with EGFR Δ19Del, read-out: Δ19Del growth inhibitory activity IC50
T1 construct: other: BaF3 cells stably transfected with EGFR Δ19Del; MTS, 48 h; other: BaF3 cell line stably transfected with EGFR Δ19Del
T1 sequence (P00533 with tags, fused parts or gaps DEL746-750): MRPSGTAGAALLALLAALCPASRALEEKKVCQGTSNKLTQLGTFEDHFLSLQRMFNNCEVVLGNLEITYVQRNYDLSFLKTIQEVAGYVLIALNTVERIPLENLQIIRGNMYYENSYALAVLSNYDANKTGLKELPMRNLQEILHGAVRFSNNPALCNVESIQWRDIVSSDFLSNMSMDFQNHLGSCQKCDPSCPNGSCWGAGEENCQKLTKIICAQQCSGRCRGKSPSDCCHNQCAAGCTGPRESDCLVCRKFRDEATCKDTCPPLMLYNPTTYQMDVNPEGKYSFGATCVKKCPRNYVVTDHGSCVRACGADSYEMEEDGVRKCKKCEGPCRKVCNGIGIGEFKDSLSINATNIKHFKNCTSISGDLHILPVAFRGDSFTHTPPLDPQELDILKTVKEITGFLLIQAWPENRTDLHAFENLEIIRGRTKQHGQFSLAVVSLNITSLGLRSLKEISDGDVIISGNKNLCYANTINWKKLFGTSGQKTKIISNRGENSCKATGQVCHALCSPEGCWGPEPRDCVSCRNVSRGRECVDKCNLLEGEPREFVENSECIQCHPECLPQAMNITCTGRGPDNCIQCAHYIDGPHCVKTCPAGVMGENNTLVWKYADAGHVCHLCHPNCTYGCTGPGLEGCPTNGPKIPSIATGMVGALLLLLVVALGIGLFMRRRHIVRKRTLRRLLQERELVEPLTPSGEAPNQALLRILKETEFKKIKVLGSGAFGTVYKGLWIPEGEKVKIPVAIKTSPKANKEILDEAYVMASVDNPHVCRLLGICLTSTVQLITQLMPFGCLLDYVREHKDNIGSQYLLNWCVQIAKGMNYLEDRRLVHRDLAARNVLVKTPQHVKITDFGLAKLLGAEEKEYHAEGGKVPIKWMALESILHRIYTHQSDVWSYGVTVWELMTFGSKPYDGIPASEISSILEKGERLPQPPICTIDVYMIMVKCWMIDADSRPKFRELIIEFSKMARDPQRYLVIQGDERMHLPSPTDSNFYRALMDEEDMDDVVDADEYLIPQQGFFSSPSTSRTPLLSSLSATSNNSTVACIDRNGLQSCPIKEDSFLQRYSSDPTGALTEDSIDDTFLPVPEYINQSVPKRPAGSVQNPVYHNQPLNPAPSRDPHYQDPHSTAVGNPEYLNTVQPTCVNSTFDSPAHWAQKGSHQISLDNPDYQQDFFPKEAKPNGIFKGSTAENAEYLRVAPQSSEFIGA
How it was run: (§1)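 Growth is measured by MTS reduction (OD 490 nm) after 48 h compound exposure at up to 10 µM in 8 steps of 1/3. Inhibition is calculated against a 0.1% DMSO control and cell-free blank, and IC50 is derived from it.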

[2] = molecular target: T2, various mutants of kinase EGFR (BaF3 cell lines stably transfected with kinase) (Homo sapiens, UniProt P00533, C797S/L858R/T790M); settings: BaF3 cell line stably transfected with EGFR L858R/T790M/C797S, read-out: L858R/T790M/ C797S growth inhibitory activity IC50
T2 construct: expressed in transfected cells; host or cells: BaF3
How it was run: as §1

[3] = molecular target: T3, various mutants of kinase EGFR (BaF3 cell lines stably transfected with kinase) (Homo sapiens, UniProt P00533, L858R); settings: BaF3 cell line stably transfected with EGFR L858R, read-out: L858R growth inhibitory activity IC50
T3 construct: expressed in transfected cells; host or cells: BaF3
How it was run: as §1

[4] = molecular target: T4, various mutants of kinase EGFR (BaF3 cell lines stably transfected with kinase) (Homo sapiens, UniProt P00533, L858R/T790M); settings: BaF3 cell line stably transfected with EGFR L858R/T790M, read-out: L858R/ T790M growth inhibitory activity IC50
T4 construct: expressed in transfected cells; host or cells: BaF3
T4 sequence (P00533 25-1210 T790M/L858R): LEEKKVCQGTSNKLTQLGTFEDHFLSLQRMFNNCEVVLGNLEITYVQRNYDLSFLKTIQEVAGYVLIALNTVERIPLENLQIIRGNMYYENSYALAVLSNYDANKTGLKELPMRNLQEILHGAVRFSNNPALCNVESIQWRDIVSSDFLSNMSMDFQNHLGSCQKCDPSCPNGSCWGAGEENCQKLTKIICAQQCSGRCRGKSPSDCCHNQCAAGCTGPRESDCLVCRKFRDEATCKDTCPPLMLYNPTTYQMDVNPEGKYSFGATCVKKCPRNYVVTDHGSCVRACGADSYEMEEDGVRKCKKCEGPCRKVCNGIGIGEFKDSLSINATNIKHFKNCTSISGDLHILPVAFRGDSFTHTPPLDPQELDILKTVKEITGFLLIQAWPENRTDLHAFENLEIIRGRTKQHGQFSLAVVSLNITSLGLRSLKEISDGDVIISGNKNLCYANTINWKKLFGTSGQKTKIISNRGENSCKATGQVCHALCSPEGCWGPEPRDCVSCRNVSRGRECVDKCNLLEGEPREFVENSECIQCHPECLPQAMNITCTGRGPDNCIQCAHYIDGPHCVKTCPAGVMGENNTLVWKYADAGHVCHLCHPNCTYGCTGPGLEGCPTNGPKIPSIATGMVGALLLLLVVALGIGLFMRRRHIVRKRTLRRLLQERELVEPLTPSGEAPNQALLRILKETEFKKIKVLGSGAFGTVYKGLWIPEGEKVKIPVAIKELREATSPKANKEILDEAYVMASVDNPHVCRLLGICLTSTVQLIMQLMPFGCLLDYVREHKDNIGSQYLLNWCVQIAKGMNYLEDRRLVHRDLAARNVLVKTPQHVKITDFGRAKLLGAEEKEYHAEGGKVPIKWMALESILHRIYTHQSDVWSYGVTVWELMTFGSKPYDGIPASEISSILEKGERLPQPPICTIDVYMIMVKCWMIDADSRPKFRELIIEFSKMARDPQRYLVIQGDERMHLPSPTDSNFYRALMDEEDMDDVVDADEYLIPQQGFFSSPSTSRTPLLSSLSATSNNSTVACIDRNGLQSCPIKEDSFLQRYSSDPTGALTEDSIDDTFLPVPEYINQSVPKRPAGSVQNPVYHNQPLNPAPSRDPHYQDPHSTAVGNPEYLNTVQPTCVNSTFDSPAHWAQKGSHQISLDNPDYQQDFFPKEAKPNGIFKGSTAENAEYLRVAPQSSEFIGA
How it was run: as §1

[5] = molecular target: T5, various mutants of kinase EGFR (BaF3 cell lines stably transfected with kinase) (Homo sapiens, UniProt P00533, T790M/C797S, form not given); settings: BaF3 cell line stably transfected with EGFR Δ19Del/T790M/C797S, read-out: Δ19Del/T790M/ C797S growth inhibitory activity IC50
T5 construct: other: BaF3 cells stably transfected with EGFR Δ19Del/T790M/C797S; MTS, 48; other: BaF3 cell line stably transfected with EGFR Δ19Del/T790M/C7
T5 sequence (P00533 with tags, fused parts or gaps DEL746-750/T790M/C797S, form open): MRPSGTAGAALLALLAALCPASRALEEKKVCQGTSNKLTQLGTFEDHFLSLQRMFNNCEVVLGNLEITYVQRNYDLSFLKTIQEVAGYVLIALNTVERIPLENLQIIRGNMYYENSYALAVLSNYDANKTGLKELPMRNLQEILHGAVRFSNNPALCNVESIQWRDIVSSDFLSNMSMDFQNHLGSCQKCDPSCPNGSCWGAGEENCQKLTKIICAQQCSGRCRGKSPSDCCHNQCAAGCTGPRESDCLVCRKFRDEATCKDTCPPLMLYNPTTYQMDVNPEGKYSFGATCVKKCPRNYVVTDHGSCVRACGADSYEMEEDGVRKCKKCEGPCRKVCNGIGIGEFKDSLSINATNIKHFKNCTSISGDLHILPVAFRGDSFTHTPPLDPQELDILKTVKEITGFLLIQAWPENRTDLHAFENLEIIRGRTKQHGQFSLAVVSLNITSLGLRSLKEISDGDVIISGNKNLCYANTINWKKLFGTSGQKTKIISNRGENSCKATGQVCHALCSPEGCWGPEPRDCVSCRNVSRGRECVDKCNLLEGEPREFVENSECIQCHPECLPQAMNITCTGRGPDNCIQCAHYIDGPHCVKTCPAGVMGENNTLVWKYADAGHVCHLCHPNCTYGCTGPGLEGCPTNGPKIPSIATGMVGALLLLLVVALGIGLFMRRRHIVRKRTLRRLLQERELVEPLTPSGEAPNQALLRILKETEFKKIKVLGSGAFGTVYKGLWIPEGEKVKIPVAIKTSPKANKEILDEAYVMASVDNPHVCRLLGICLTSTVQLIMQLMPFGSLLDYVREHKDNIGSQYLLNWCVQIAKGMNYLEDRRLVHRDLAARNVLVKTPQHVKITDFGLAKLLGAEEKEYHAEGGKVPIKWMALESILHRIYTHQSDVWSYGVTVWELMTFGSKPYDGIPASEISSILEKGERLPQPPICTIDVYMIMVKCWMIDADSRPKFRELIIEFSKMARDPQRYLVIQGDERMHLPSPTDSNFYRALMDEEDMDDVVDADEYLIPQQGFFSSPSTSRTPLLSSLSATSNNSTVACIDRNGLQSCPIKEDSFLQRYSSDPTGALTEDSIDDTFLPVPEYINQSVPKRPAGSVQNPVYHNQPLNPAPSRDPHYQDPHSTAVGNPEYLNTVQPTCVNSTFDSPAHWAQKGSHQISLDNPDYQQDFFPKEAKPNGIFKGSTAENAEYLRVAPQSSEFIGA
How it was run: as §1

[6] = molecular target: T6, various mutants of kinase EGFR (BaF3 cell lines stably transfected with kinase) (Homo sapiens, UniProt P00533, T790M, form not given); settings: BaF3 cell line stably transfected with EGFR Δ19Del/T790M, read-out: Δ19Del/ T790M growth inhibitory activity IC50
T6 construct: other: BaF3 cells stably transfected with EGFR Δ19Del/T790M; MTS, 48 h; other: BaF3 cell line stably transfected with EGFR Δ19Del/T790M; MTS, 48
T6 sequence (P00533 with tags, fused parts or gaps DEL746-750/T790M, form open): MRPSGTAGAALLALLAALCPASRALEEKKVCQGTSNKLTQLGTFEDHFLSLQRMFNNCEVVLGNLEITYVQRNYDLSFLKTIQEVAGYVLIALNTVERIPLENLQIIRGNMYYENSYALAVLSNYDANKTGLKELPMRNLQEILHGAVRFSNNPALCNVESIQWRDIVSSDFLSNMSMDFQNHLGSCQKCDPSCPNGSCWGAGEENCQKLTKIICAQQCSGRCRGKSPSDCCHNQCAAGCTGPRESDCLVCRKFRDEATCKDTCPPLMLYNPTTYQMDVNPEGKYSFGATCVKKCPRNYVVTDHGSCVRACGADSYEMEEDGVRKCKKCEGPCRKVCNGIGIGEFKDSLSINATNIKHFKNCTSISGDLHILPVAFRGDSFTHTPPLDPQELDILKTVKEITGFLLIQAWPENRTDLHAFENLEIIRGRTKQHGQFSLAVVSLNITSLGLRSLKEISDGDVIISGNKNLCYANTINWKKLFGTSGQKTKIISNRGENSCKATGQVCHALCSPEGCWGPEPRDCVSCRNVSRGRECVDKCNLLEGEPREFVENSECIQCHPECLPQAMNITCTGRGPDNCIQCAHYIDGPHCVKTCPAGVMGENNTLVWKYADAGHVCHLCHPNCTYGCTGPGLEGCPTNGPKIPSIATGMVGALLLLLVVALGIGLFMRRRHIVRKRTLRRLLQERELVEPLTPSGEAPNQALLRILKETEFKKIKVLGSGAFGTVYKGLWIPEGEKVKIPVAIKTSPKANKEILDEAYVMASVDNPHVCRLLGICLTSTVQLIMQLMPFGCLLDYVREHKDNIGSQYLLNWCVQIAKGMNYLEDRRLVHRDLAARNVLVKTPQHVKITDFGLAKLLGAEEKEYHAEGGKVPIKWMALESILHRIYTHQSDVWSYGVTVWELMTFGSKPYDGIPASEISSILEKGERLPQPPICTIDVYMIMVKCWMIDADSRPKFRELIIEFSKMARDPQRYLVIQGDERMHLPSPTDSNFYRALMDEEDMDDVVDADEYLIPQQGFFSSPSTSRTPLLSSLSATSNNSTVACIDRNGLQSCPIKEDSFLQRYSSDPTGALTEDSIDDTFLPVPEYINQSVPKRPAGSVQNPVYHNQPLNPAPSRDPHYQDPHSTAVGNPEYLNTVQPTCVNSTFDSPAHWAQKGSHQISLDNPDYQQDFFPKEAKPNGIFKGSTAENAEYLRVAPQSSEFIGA
How it was run: as §1

| SMILES | IC50 [1] | IC50 [2] | IC50 [3] | IC50 [4] | IC50 [5] | IC50 [6] |
| --- | --- | --- | --- | --- | --- | --- |
| CCc1cc(Nc2ncc(Br)c(Nc3ccc4nccnc4c3NS(C)(=O)=O)n2)c(OC)cc1N1CCC(N(C)C)C1 (stereo not drawn) [Compound I-412] | ≤ 50 nM | ≤ 50 nM | ≤ 50 nM | ≤ 50 nM | ≤ 50 nM | ≤ 50 nM |
| COc1cc(N2CCC(N3CCN(C)CC3)CC2)ccc1Nc1ncc(Br)c(Nc2ccc3nccnc3c2NS(=O)(=O)C(C)C)n1 [Compound I-413] | 50 to 500 nM | 50 to 500 nM | 50 to 500 nM | 50 to 500 nM | 50 to 500 nM | 50 to 500 nM |
| COc1cc(N2CCC(N3CCN(C)CC3)CC2)c(C)cc1Nc1ncc(Br)c(Nc2ccc3nccnc3c2NS(=O)(=O)C(C)C)n1 [Compound I-414] | 50 to 500 nM | ≤ 50 nM | 50 to 500 nM | ≤ 50 nM | ≤ 50 nM | ≤ 50 nM |
| CCc1cc(Nc2ncc(Br)c(Nc3ccc4nccnc4c3NS(=O)(=O)C(C)C)n2)c(OC)cc1N1CCC(N2CCN(C)CC2)CC1 [Compound I-415] | ≤ 50 nM | ≤ 50 nM | ≤ 50 nM | ≤ 50 nM | ≤ 50 nM | ≤ 50 nM |
| COc1cc(N2CCC(N3CCN(C)CC3)CC2)ccc1Nc1nc(Nc2ccc3nccnc3c2N(C)S(C)(=O)=O)c2sccc2n1 [II-1-1] | 500 to 2500 nM | 500 to 2500 nM | 500 to 2500 nM | 500 to 2500 nM | 50 to 500 nM | 500 to 2500 nM |
| COc1cc(N2CCC(N3CCN(C)CC3)CC2)c(C)cc1Nc1nc(Nc2ccc3nccnc3c2N(C)S(C)(=O)=O)c2sccc2n1 [II-1-2] | 50 to 500 nM | 50 to 500 nM | 50 to 500 nM | 50 to 500 nM | ≤ 50 nM | 50 to 500 nM |
| CCc1cc(Nc2nc(Nc3ccc4nccnc4c3N(C)S(C)(=O)=O)c3sccc3n2)c(OC)cc1N1CCC(N2CCN(C)CC2)CC1 [II-1-3] | 50 to 500 nM | ≤ 50 nM | 50 to 500 nM | 50 to 500 nM | ≤ 50 nM | 50 to 500 nM |
| COc1nc(N2CCC(N3CCN(C)CC3)CC2)ccc1Nc1nc(Nc2ccc3nccnc3c2N(C)S(C)(=O)=O)c2sccc2n1 [II-1-4] | 500 to 2500 nM | 500 to 2500 nM | 500 to 2500 nM | 500 to 2500 nM | 500 to 2500 nM | 500 to 2500 nM |
| CCc1cc(Nc2nc(Nc3ccc4nccnc4c3N(C)S(C)(=O)=O)c3sccc3n2)c(OC)nc1N1CCC(N2CCN(C)CC2)CC1 [II-1-6] | 500 to 2500 nM | 50 to 500 nM | 500 to 2500 nM | 50 to 500 nM | 50 to 500 nM | 500 to 2500 nM |
| CCc1cc(Nc2nc(Nc3ccc4nccnc4c3N(C)S(C)(=O)=O)c3sccc3n2)c(OC(F)(F)F)cc1N1CCC(N2CCN(C)CC2)CC1 [II-1-8] | 500 to 2500 nM | 50 to 500 nM | 500 to 2500 nM | 50 to 500 nM | 50 to 500 nM | 50 to 500 nM |
| C=Cc1cc(Nc2nc(Nc3ccc4nccnc4c3N(C)S(C)(=O)=O)c3sccc3n2)c(OC(F)(F)F)cc1N1CCC(N2CCN(C)CC2)CC1 [II-1-9] | 500 to 2500 nM | 50 to 500 nM | 500 to 2500 nM | 50 to 500 nM | ≤ 50 nM | 50 to 500 nM |
| COc1cc(N2CCC(N3CCN(C)CC3)CC2)c(Cc2ccccc2)cc1Nc1nc(Nc2ccc3nccnc3c2N(C)S(C)(=O)=O)c2sccc2n1 [II-1-11] | 500 to 2500 nM | 500 to 2500 nM | 500 to 2500 nM | 500 to 2500 nM | 500 to 2500 nM | 50 to 500 nM |
| COc1cc(N2CCN(C)CC2)c(C)cc1Nc1nc(Nc2ccc3nccnc3c2N(C)S(C)(=O)=O)c2sccc2n1 [II-1-12] | 500 to 2500 nM | 50 to 500 nM | 500 to 2500 nM | 50 to 500 nM | 50 to 500 nM | 500 to 2500 nM |
| COc1cc(N2CCC(N(C)C)CC2)c(C)cc1Nc1nc(Nc2ccc3nccnc3c2N(C)S(C)(=O)=O)c2sccc2n1 [II-1-13] | 500 to 2500 nM | 50 to 500 nM | 500 to 2500 nM | 50 to 500 nM | ≤ 50 nM | 50 to 500 nM |
| COc1cc(N2CCC(N(C)C)C2)c(C)cc1Nc1nc(Nc2ccc3nccnc3c2N(C)S(C)(=O)=O)c2sccc2n1 (stereo not drawn) [II-1-14] | 500 to 2500 nM | 500 to 2500 nM | 500 to 2500 nM | 50 to 500 nM | 50 to 500 nM | 500 to 2500 nM |
